Reference: patent US9676997B2, “Compositions and methods for stabilizing luminogenic substrates” (Promega Corporation, priority 2014, dated 2017)

Assays:
Format in all cases: physicochemical
[1] = Stability of 1.25 mM furimazine in DMSO with or without 225 mM ATT, HPLC; details: room temperature, 40° C., and 60° C., in the presence of light
Method: To further examine the stabilization of furimazine by ATT, stability of furimazine was measured at room temperature, 40°, and 60° C. in a different organic solvent, namely DMSO. This study was performed in the presence of light.
Specifically, a 2× stock solution of ATT in DMSO was prepared, in which the final concentration of ATT was 64.4 mg/mL. A 2× stock solution of furimazine in DMSO was also prepared, in which the final concentration of furimazine was 0.95 mg/mL. In one vial, the 2× ATT stock solution was diluted 1:1 in the 2× furimazine stock solution to create a solution containing 225 mM ATT and 1.25 mM furimazine. In a second vial, furimazine was diluted 1:1 in DMSO to create a control solution without the additive ATT (i.e., “no additive furimazine” control) and containing 1.25 mM furimazine.
(§1) The content of each vial was dispensed into separate, clear HPLC vials with insert and these HPLC vials were placed at room temperature (i.e., about 20° C.), 40° C., and 60° C. There was one HPLC vial per time point for each temperature.
Stability was measured by HPLC with 5 μL injection and detection at 262 nm. In each chromatogram, the area percentage of furimazine was determined.

[2] = Photostability of 1.25 mM furimazine in 50% propylene glycol:50% ethanol with or without 225 mM ATT, HPLC; details: for 10% loss / 50% loss: in the light
Method: Specifically, a 2× stock solution of ATT in 50% propylene glycol:50% ethanol (v/v) was prepared, in which the final concentration of ATT was 64.4 mg/mL. A 2× stock solution of furimazine in 50% propylene glycol:50% ethanol (v/v) was also prepared, in which the final concentration of furimazine was 0.95 mg/mL. In one vial, the 2×ATT stock solution was diluted 1:1 in the 2×furimazine stock solution to create a solution containing 225 mM ATT and 1.25 mM furimazine. In a second vial, the 2×furimazine stock solution was diluted 1:1 in 50% propylene glycol:50% ethanol (v/v) to create a control solution without the additive ATT (i.e., “no additive furimazine” control) and containing 1.25 mM furimazine.
as §1, with “C.) in the light (i.e., in the presence of overhead fluorescent light) and at” for “C.),”, “40°” for “40° C., and 60°”, “C. in the light.” for “C.”
Stability was measured by HPLC with 5 μL injection and detection at 262 nm. In each chromatogram, the area of the furimazine peak was determined. Stability curves were generated by plotting the area (10^6) vs. time (days) and are shown in FIGS. 13A and 13B for room temperature and 40° C., respectively.

[3] = Stability of 1.25 mM furimazine in 50% ethanol and 50% propylene glycol with or without 225 mM ATT, in the presence of light, HPLC and Arrhenius plots; details: for relative peak area percentage at 262 nm: in the presence of light
Method: The stability of furimazine in the presence and absence of ATT was measured over time at different temperatures. This study was conducted in the presence of light. Specifically, 1.25 mM furimazine was present in a solution of 50% ethanol and 50% propylene glycol (i.e., the solution without ATT) or a solution of 50% ethanol and 50% propylene glycol with 225 mM ATT (i.e., the solution with ATT). […]
Following incubation, high performance liquid chromatography (HPLC) was utilized to identify the components of the respective solutions at each time point. Specifically, an Agilent 1100 HPLC instrument was used and equipped with a quaternary pump, thermostatted autosampler and column compartment, and a G1311B diode-array detector. The column used was a Synergi-MAX-RP (Phenomenex, Torrance, Calif.) 100 AÅ 50×4.6 2.5 μm. The run on the HPLC was a gradient run with 0.1% TFA in water and acetonitrile. Absorbance was measured at 262 nanometers (nm). Standards of furimazine and its known degradants were run to confirm both the retention time and absorbance trace. 5 μl of each solution was injected and the retention time of furimazine at room temperature was 5.1 minutes.
The results of the HPLC analysis are shown below in Tables 10 and 11 and FIGS. 4A and 4B, in which the values are reported as relative peak area percentage at 262 nm (i.e., the lamba max of the substrate). […] In each of FIGS. 4A and 4B, diamond is 1.25 mM furimazine incubated over time with or without 225 mM ATT, respectively, at −20° C., triangle is 1.25 mM furimazine incubated over time with or without 225 mM ATT, respectively, at 20° C., star is 1.25 mM furimazine incubated over time with or without 225 mM ATT, respectively, at 40° C., and cross is 1.25 mM furimazine incubated over time with or without 225 mM ATT, respectively, at 60° C.
Additionally, Arrhenius plots were generated for furimazine in the presence and absence of ATT to calculate the half-life of furimazine at various temperatures. The Arrhenius equation is as follows: […]
In FIG. 5, the slope was −10831.4, the intercept was 31.3561, and R^2 was 0.9813.
In FIG. 6, the slope was −10106.2, the intercept was 30.1809, and R^2 was 0.9984.

Cc1n[nH]c(=S)[nH]c1=O [ATT, 6-methyl-3-thioxo-3,4-dihydro-1,2,4-triazin-5(2H)-one]
stabilization of furimazine in DMSO against decomposition [1]: stabilized furimazine in DMSO against decomposition at different temperatures
stabilization of furimazine against decomposition in the presence of light ([2]; 225 mM ATT, room temperature and 40° C.): stabilized furimazine against decomposition in the presence of light at different temperatures
stabilization of furimazine against decomposition ([3]; 225 mM ATT, over time at different temperatures): stabilized furimazine against decomposition over time at different temperatures

O=c1c(Cc2ccco2)nc2c(Cc3ccccc3)[nH]c(-c3ccccc3)cn1-2 [Furimazine, furimazine]
10% loss ([2]; 40° C.): 0.4 days
50% loss ([2]; 40° C.): 3.6 days
10% loss ([2]; room temperature): 0.5 days
50% loss ([2]; room temperature): 2.1 days
relative peak area percentage at 262 nm ([3]; 40° C., 0 days): 89.7%
relative peak area percentage at 262 nm ([3]; 40° C., 1 day): 93.8%
relative peak area percentage at 262 nm ([3]; 40° C., 5 days): 65%
relative peak area percentage at 262 nm ([3]; 40° C., 8 days): 50.1%
relative peak area percentage at 262 nm ([3]; 40° C., 14 days): 27%
relative peak area percentage at 262 nm ([3]; 40° C., 30 days): 3.5%
relative peak area percentage at 262 nm ([3]; 40° C., 90 days): 0%
relative peak area percentage at 262 nm ([3]; 60° C., 0 days): 89.7%
relative peak area percentage at 262 nm ([3]; 60° C., 1 day): 70.1%
relative peak area percentage at 262 nm ([3]; 60° C., 5 days): 1.3%^
relative peak area percentage at 262 nm ([3]; 60° C., 8 days): 0%
relative peak area percentage at 262 nm ([3]; 60° C., 14 days): 0%
relative peak area percentage at 262 nm ([3]; 60° C., 30 days): 0%
relative peak area percentage at 262 nm ([3]; 60° C., 90 days): 0%
relative peak area percentage at 262 nm ([3]; RT (20° C.), 0 days): 89.7%
relative peak area percentage at 262 nm ([3]; RT (20° C.), 1 day): 97.2%
relative peak area percentage at 262 nm ([3]; RT (20° C.), 5 days): 93.8%
relative peak area percentage at 262 nm ([3]; RT (20° C.), 8 days): 91.7%
relative peak area percentage at 262 nm ([3]; RT (20° C.), 14 days): 86.7%
relative peak area percentage at 262 nm ([3]; RT (20° C.), 30 days): 74.8%
relative peak area percentage at 262 nm ([3]; RT (20° C.), 90 days): 27.1%
Arrhenius plot intercept ([3]; decomposition of furimazine): 30.1809
Arrhenius plot slope ([3]; decomposition of furimazine): −10106.2
relative peak area percentage at 262 nm ([3]; −20° C., 0 days): 89.7%
relative peak area percentage at 262 nm ([3]; −20° C., 1 day): 98.3%
relative peak area percentage at 262 nm ([3]; −20° C., 5 days): 96.9%
relative peak area percentage at 262 nm ([3]; −20° C., 8 days): 98.2%
relative peak area percentage at 262 nm ([3]; −20° C., 14 days): 97.7%
relative peak area percentage at 262 nm ([3]; −20° C., 30 days): 98.3%
relative peak area percentage at 262 nm ([3]; −20° C., 90 days): 95.3%
